Laboratory results published in patent publication EP0396827A1, “2-Phenylthiobenzylamine dervivatives and acid addition salts thereof” (SPOFA Spojené Podniky Pro Zdravotnickou Vyrobu, priority 1989, dated 1990).
pIC50: −log10 of the molar value. Structures can show the parent of a compound that is named as a salt.

What was measured:
[1] = biological target: T1, IP receptors (Rattus norvegicus, UniProt P31652); experiment: inhibition of tritium-labelled imipramine binding in rat hypothalamus
T1 construct: standard biochemical tests on rat hypothalamus; from tissue; host or cells: rat hypothalamus
T1 sequence (P31652 whole entry): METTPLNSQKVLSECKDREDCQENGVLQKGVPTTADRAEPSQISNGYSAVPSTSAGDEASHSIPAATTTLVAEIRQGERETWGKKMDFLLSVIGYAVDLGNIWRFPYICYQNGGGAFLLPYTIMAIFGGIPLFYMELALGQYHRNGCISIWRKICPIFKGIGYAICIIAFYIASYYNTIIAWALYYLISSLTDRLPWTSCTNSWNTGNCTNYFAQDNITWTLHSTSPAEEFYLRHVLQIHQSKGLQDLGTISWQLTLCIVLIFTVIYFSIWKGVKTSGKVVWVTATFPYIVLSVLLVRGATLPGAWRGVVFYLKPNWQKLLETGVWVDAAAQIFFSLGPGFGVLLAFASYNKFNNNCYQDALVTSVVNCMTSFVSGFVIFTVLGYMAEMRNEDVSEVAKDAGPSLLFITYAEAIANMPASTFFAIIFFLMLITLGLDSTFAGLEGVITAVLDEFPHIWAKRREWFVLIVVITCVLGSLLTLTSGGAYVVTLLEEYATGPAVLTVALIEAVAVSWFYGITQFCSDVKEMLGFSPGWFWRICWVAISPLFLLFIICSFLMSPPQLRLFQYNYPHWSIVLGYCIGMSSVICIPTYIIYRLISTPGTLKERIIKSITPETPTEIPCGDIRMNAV
Protocol: (§1) The above compound was selected as a preferred structure from numerous related new substances on the basis of pharmacological evaluation.
(§2) The substances under study were tested in the form of salts administered p.o. The results are conventionally expressed as medium inhibition concentrations IC₅₀ (nM) and effective doses ED (eliciting a first statistically significant response) or medium effective doses ED₅₀ (mg per kg); the concentrations and effective doses are calculated as the corresponding amounts of the base.
(§3) Acute toxicity was tested in mice p.o. and medium lethal dose LD₅₀ is given. Thus, compound IA hydrogen maleate LD₅₀ 232 mg/kg. […] Reserpine hypothermia ED 10, ptosis 25, ulceration 50 mg/kg. Yohimbine, ED₅₀ 54.7 mg/kg.

[2] = biological target: T2, DP receptors (Rattus norvegicus, UniProt Q63380); experiment: inhibition of tritium-labelled desipramine binding in rat hypothalamus
T2 construct: standard biochemical tests on rat hypothalamus; from tissue; host or cells: rat hypothalamus
T2 sequence (Q63380 1-617): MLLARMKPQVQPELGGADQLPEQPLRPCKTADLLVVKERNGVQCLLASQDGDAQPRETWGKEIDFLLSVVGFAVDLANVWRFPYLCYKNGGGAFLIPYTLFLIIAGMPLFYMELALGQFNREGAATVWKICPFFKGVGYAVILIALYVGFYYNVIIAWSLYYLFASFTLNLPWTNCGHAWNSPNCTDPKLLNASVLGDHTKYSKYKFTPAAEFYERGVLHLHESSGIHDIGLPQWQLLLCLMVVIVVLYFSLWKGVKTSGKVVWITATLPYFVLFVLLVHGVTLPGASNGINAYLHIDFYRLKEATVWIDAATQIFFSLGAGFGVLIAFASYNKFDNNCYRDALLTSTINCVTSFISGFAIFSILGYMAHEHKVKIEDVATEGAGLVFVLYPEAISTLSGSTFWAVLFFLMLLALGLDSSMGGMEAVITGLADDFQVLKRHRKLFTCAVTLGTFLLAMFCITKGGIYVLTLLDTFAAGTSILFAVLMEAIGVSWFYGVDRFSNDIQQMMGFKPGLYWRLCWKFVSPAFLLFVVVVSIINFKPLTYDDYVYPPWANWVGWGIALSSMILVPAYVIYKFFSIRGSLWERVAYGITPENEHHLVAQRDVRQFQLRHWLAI
Protocol: as §1, §2, §3

[3] = test system: 5-HT re-uptake; experiment: ³H-5-HT re-uptake inhibition in rat brain cortex; type: biochemical; details: ³H-5-HT 10 nM, calculated as base, read-out: 5-HT re-uptake IC₅₀
Protocol: (§4) The reported selective action of compound IA was verified by direct comparison of ³H-5-HT (10 nM) and ³H-noradrenaline (NA, 10 nM) re-uptake in rat brain cortex; again the two sets of values were markedly differentiated in the sense of predominant 5-HT re-uptake inhibition.
as §2, §3

[4] = test system: NA re-uptake; experiment: ³H-noradrenaline re-uptake inhibition in rat brain cortex; type: biochemical; details: ³H-noradrenaline 10 nM, calculated as base, read-out: NA re-uptake IC₅₀
Protocol: as §4, §2, §3

[5] = antireserpine activity: reserpine hypothermia; type: in vivo; details: p.o.; ED eliciting a first statistically significant response; calculated as base
Protocol: (§5) Also, standard pharmacological tests of antireserpine activity (on experimental hypothermia, eyelid ptosis and gastric ulceration) and potentiation of yohimbine toxicity in mice are indicative of pronounced antidepressant properties of compound IA.
as §2, §3

[6] = antireserpine activity: reserpine eyelid ptosis; type: in vivo; details: p.o.; ED eliciting a first statistically significant response; calculated as base
Protocol: as §5, §2, §3

[7] = antireserpine activity: reserpine gastric ulceration; type: in vivo; details: p.o.; ED eliciting a first statistically significant response; calculated as base
Protocol: as §5, §2, §3

[8] = potentiation of yohimbine toxicity in mice; type: in vivo; details: Mus musculus, po, calculated as base, read-out: Yohimbine, ED₅₀
Protocol: as §5, §2, §3

[9] = acute toxicity in mice p.o.; details: mouse, in vivo, po, read-out: LD₅₀
Protocol: as §3

`CN(C)Cc1ccccc1Sc1cccc(O)c1` [compound IA hydrogen maleate, N,N-Dimethyl-2-(3-hydroxyphenylthio)benzylamine] gave a pIC50 [1] of 8.37, a pIC50 [2] of 4.89 and a pIC50 [3] of 9.24. For the same molecule, the pIC50 [4] was 3.30, the “Reserpine hypothermia ED” value [5] was 10 mg/kg and the “Reserpine ptosis ED” value [6] was 25 mg/kg. The “Reserpine ulceration ED” value [7] was 50 mg/kg, the ED50 [8] was 54.7 mg/kg and the LD50 [9] was 232 mg/kg.
